Laboratory results reported in patent US10570179B2, “Substituted urea depsipeptide analogs as activators of the CLPP endopeptidase” (priority 2016, dated 2020).
Numbered stars: 1 amine (or outer) side, 2 acyl side, 3 side chain; on linkers, the order of the positions; unused ones are H or OH. Bridge positions count the residues as written; N and C are the ends. Square brackets hold non-standard residues; d marks the D form. Peptide text beside a SMILES is read from it. * marks the point of attachment. Phe(3-CF3) = N[C@@H](Cc1cccc(C(F)(F)F)c1)C(=O)O; Piperazine(2S-CO,4-Me) = CN1CCN[C@H](C(=O)O)C1; Phe(3,5-Me2) = Cc1cc(C)cc(C[C@H](N)C(=O)O)c1; Phe(3-OMe) = COc1cccc(C[C@H](N)C(=O)O)c1; Phe(3-Me) = Cc1cccc(C[C@H](N)C(=O)O)c1; NH(4-Cl-2-F-phenyl) = Fc1cc(Cl)ccc1N*; Pro(4R-Me) = C[C@H]1CN[C@H](C(=O)O)C1; Hyp = O=C(O)[C@@H]1C[C@@H](O)CN1; NH(4-Me-phenyl) = Cc1ccc(N*)cc1; aThr = C[C@H](O)[C@H](N)C(=O)O; Pip = O=C(O)[C@@H]1CCCCN1; X3 = c1cc2c(cc1N*)OCCO2; CO = O=C([*:1])[*:2]

Assays:
Sa-ClpP = biological target: T1, Sa-ClpP (Staphylococcus aureus, UniProt Q2G036); experiment: ADEP displacement fluorescence polarization assay; assay type: binding, S. aureus; conditions: displacement of FP probe ADEP 2591 from Sa-ClpP
T1 construct: made in house; host or cells: E. coli BL21 (DE3)
T1 sequence (Q2G036 whole entry): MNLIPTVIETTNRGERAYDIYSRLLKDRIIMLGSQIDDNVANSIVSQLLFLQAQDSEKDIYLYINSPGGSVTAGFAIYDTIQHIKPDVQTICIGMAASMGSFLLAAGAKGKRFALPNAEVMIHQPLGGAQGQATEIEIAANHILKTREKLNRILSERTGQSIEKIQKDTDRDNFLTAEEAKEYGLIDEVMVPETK
Procedure: A fluorescence polarization (FP) assay was used to determine the activity of the disclosed compounds in displacing an ADEP analogue from ClpP. Briefly, the assay was performed in black 384 well, flat bottom, low volume plates (Greiner Bio-One, Monroe, N.C., catalog #784076). 20 μL of a pre-equilibrated (1 hr, room temperature) master mix (15 μM Sa-ClpP, 2% DMSO (v/v) and 50 nM FP probe in TrisHCl, pH 8.0)) was pipetted into each well using a Well-Mate (Thermo Scientific, Waltham, Mass.). Sa-ClpP was prepared as described above for the ClpP activation assay. The FP probe was ADEP 2591 (structure shown above). The ADEP 2591 comprises a TAMRA fluorophore linked to a core based on modified ADEP 2378 via a short alkyl linker. Using pin transfer, approximately 0.4 μL (2% v/v DMSO) of each compound or control was added per well. After addition of compounds and controls, plates were allowed to incubate for an additional 120 minutes at room temperature. All assays were performed in triplicate. Polarization was monitored using an EnVision Multilabel reader (Perkin-Elmer, Waltham, Mass.) by exciting the FP probe at 530±25 nm, and monitoring fluorescence intensity of both parallel and perpendicular polarized light at 579±25 nm. Readout was in millipolarization units (mP).
Signal gain and G factors were determined in wells containing 200 μM ADEP 2378, which had been previously verified (data not shown) as containing completely unbound ADEP 2591. Data collected was normalized to values obtained from positive (200 μM ADEP 2378) or negative (DMSO) controls. Curves were fit with non-linear regression using the equation “log [inhibitor] vs. Response-variable slope (four parameters)-symmetrical” in the program Prism 6 (GraphPad Software, La Jolla, Calif. USA, www.graphpad.com). The structures for ADEP 2378 and ADEP 2591 are shown above. ADEP 2378 is (E)-N—((S)-1-(((2R,6S,8aS,14aS,20S,23aS)-2,6-dimethyl-5,8,14,19,23-pentaoxooctadecahydro-1H,5H,14H,19H-pyrido[2,1-i]dipyrrolo[2,1-c:2′,1′-1][1]oxa[4,7,10,13]tetraazacyclohexadecin-20-yl)amino)-1-oxo-3-phenylpropan-2-yl)pent-2-enamide. ADEP 2591 is 5-(3-(3-((6S,9S,11aS,17S,20aS)-6,10-dimethyl-5,8,11,16,20-pentaoxo-17-((S)-2-((E)-pent-2-enamido)-3-phenylpropanamido)hexadecahydro-1H,5H,16H-dipyrrolo[2,1-c:2′,1′-1][1]oxa[4,7,10,13]tetraazacyclohexadecin-9-yl)propyl)thioureido)-2-(6-(dimethylamino)-3-(dimethyliminio)-3H-xanthen-9-yl)benzoate.

[1] = Plasma protein binding, rapid equilibrium dialysis; assay type: in vitro ADME, mouse
Procedure: This assay determines plasma protein binding of a drug/compound and free drug concentration in plasma using rapid equilibrium dialysis, which allow the aqueous component of plasma containing the free drug/compound through a dialysis membrane (MWCO˜8,000).
Solutions were prepared at 10 mM in DMSO. Dulbecco's phosphate buffered saline (DPBS; pH 7.4) was obtained from Invitrogen (Carlsbad, Calif.). Single-Use RED (rapid equilibrium dialysis) device was obtained from Thermo scientific (Rockford, Ill.). Human plasma was obtained from Innovative Research INC (Novi, Michigan, Ill).
Sample preparation for plasma protein binding was modified from Waters' method. (Waters et al. (2008) J. Pharm. Sci. 97(10): 4586-95). The Teflon base plate with the RED inserts (MWCO 8 K) were allowed to use without any pre-condition the membrane inserts. Human plasma was thawed and centrifuged at 1000 rpm for 2 min to remove any particulates. Each compound was prepared at 10 μM in human plasma. This was done by adding 1 μL, of drug solution (10 mM in DMSO) to 1000 μL, of human plasma (0.1% DMSO). Spiked plasma solutions (300 μL) were placed into the sample chamber (indicated by the red ring) and 500 μL, of DPBS into the adjacent chamber. The plate was sealed and incubated at 37° C. on an orbital shaker (100 rpm) for 4 hours. After incubation, the seal was removed from the RED plate and the volume of the insert confirmed—little to no volume change occurred. Aliquots (50 μL) were removed from each side of the insert and dispensed into a 96-well deep plate. An equal volume of blank plasma or DPBS was added to the required wells to create analytically identical sample matrices (matrix matching). To each sample 200 μL, of ACN containing 4 μg/mL warfarin IS was added. All of the plates were sealed and mixed well at 600 rpm for 10 min and were centrifuged at 4000 rpm for 20 min. The supernatants (120 μL) were transferred to analytical plates for analysis by LCMS. Conditions for Waters ACQUITY-UPLC-MS-UV system were described separately. The test compound concentrations were quantified in both buffer and plasma chambers via peak areas relative to the internal standard. The percentage of the test compound bound to plasma was calculated on following equations: % Free=(Concentration buffer chamber/concentration plasma chamber)×100% and % Bound=100%-% Free.

[2] = plasma binding, % Bound, mouse plasma

| Compound | IC50 (Sa-ClpP) | Mouse ([1]; mouse, 4 h, 10 μM, pH 7.4) | Mouse [1, 2] |
| --- | --- | --- | --- |
| C[C@@H]1C[C@H]2C(=O)OC[C@H](NC(=O)[C@H](Cc3cccc(C(F)(F)F)c3)NC(=O)Nc3ccc(Cl)cc3F)C(=O)N3CCC[C@H]3C(=O)N3CCN(C)C[C@H]3C(=O)N[C@@H](C)C(=O)N2C1 [Compound 18, (S)-2-(3-(4-CHLORO-2-FLUOROPHENYL)UREIDO)-3-(3-(TRIFLUOROMETHYL)PHENYL)-N-((6AS,12S,15AS,17R,21S,23AS)-2,17,21-TRIMETHYL-6,11,15,20,23-PENTAOXOOCTADECAHYDRO-2H,6H,11H,15H-PYRAZINO[2,1-I]DIPYRROLO[2,1-C:2′,1′-L][1]OXA[4,7,10,13]TETRAAZACYCLOHEXADECIN-12-YL)PROPANAMIDE] ({NH(4-Cl-2-F-phenyl)-CO}-[Phe(3-CF3)]SP[Piperazine(2S-CO,4-Me)]A[Pro(4R-Me)]; ester 2-C) | 4.79 ± 0.27 µM | 99.2 ± 0.1% |  |
| Cc1ccc(NC(=O)N[C@@H](Cc2cc(C)cc(C)c2)C(=O)N[C@@H]2C(=O)N3CCC[C@H]3C(=O)N3CCCC[C@H]3C(=O)N[C@@H](C)C(=O)N3C[C@H](C)C[C@H]3C(=O)O[C@H]2C)cc1 [Compound 2, (S)-3-(3,5-DIMETHYLPHENYL)-2-(3-(P-TOLYL)UREIDO)-N-((2R,6S,8AS,14AS,20S,21S,23AS)-2,6,21-TRIMETHYL-5,8,14,19,23-PENTAOXOOCTADECAHYDRO-1H,5H,14H,19H-PYRIDO[2,1-I]DIPYRROLO[2,1-C:2′,1′-L][1]OXA[4,7,10,13]TETRAAZACYCLOHEXADECIN-20-YL)PROPANAMIDE] ({NH(4-Me-phenyl)-CO}-[Phe(3,5-Me2)][aThr]P[Pip]A[Pro(4R-Me)]; ester 2-C) | 8.82 ± 0.4 µM |  | 99.2% |
| Cc1cccc(C[C@H](NC(=O)Nc2ccc(Cl)cc2F)C(=O)N[C@@H]2C(=O)N3CCC[C@H]3C(=O)N3CCCC[C@H]3C(=O)N[C@@H](C)C(=O)N3C[C@H](C)C[C@H]3C(=O)O[C@H]2C)c1 [Compound 3, (S)-2-(3-(4-CHLORO-2-FLUOROPHENYL)UREIDO)-3-(M-TOLYL)-N-((2R,6S,8AS,14AS,20S,21S,23AS)-2,6,21-TRIMETHYL-5,8,14,19,23-PENTAOXOOCTADECAHYDRO-1H,5H,14H,19H-PYRIDO[2,1-I]DIPYRROLO[2,1-C:2′,1′-L][1]OXA[4,7,10,13]TETRAAZACYCLOHEXADECIN-20-YL)PROPANAMIDE] ({NH(4-Cl-2-F-phenyl)-CO}-[Phe(3-Me)][aThr]P[Pip]A[Pro(4R-Me)]; ester 2-C) | 6.61 ± 0.28 µM | 99.3 ± 0.1% |  |
| COc1cccc(C[C@H](NC(=O)Nc2ccc(Cl)cc2F)C(=O)N[C@H]2COC(=O)[C@@H]3C[C@@H](C)CN3C(=O)[C@H](C)NC(=O)[C@@H]3CN(C)CCN3C(=O)[C@@H]3CCCN3C2=O)c1 [Compound 19, (S)-2-(3-(4-CHLORO-2-FLUOROPHENYL)UREIDO)-3-(3-METHOXYPHENYL)-N-((6AS,12S,15AS,17R,21S,23AS)-2,17,21-TRIMETHYL-6,11,15,20,23-PENTAOXOOCTADECAHYDRO-2H,6H,11H,15H-PYRAZINO[2,1-I]DIPYRROLO[2,1-C:2′,1′-L][1]OXA[4,7,10,13]TETRAAZACYCLOHEXADECIN-12-YL)PROPANAMIDE] ({NH(4-Cl-2-F-phenyl)-CO}-[Phe(3-OMe)]SP[Piperazine(2S-CO,4-Me)]A[Pro(4R-Me)]; ester 2-C) | 6.05 ± 0.3 µM | 98.3 ± 0.1% |  |
| Cc1ccc(NC(=O)N[C@@H](Cc2cccc(C)c2)C(=O)N[C@@H]2C(=O)N3CCC[C@H]3C(=O)N3CCCC[C@H]3C(=O)N[C@@H](C)C(=O)N3C[C@H](C)C[C@H]3C(=O)O[C@H]2C)cc1 [Compound 1, (S)-3-(M-TOLYL)-2-(3-(P-TOLYL)UREIDO)-N-((2R,6S,8AS,14AS,20S,21S,23AS)-2,6,21-TRIMETHYL-5,8,14,19,23-PENTAOXOOCTADECAHYDRO-1H,5H,14H,19H-PYRIDO[2,1-I]DIPYRROLO[2,1-C:2′,1′-L][1]OXA[4,7,10,13]TETRAAZACYCLOHEXADECIN-20-YL)PROPANAMIDE] ({NH(4-Me-phenyl)-CO}-[Phe(3-Me)][aThr]P[Pip]A[Pro(4R-Me)]; ester 2-C) | 7.48 ± 0.5 µM |  | 98.9% |
| Cc1cccc(C[C@H](NC(=O)Nc2ccc(Cl)cc2F)C(=O)N[C@H]2COC(=O)[C@@H]3C[C@@H](C)CN3C(=O)[C@H](C)NC(=O)[C@@H]3CN(C)CCN3C(=O)[C@@H]3CCCN3C2=O)c1 [Compound 13, (S)-2-(3-(4-CHLORO-2-FLUOROPHENYL)UREIDO)-3-(M-TOLYL)-N-((6AS,12S,15AS,17R,21S,23AS)-2,17,21-TRIMETHYL-6,11,15,20,23-PENTAOXOOCTADECAHYDRO-2H,6H,11H,15H-PYRAZINO[2,1-I]DIPYRROLO[2,1-C:2′,1′-L][1]OXA[4,7,10,13]TETRAAZACYCLOHEXADECIN-12-YL)PROPANAMIDE] ({NH(4-Cl-2-F-phenyl)-CO}-[Phe(3-Me)]SP[Piperazine(2S-CO,4-Me)]A[Pro(4R-Me)]; ester 2-C) | 16.4 ± 0.8 µM | 97.5 ± 0.3% |  |
| Cc1cccc(C[C@H](NC(=O)Nc2ccc3c(c2)OCCO3)C(=O)N[C@@H]2C(=O)N3C[C@H](O)C[C@H]3C(=O)N3CCCC[C@H]3C(=O)N[C@@H](C)C(=O)N3C[C@H](C)C[C@H]3C(=O)O[C@H]2C)c1 [Compound 28, (S)-2-(3-(2,3-DIHYDROBENZO[B][1,4]DIOXIN-6-YL)UREIDO)-N-((2R,6S,8AS,14AS,16R,20S,21S,23AS)-16-HYDROXY-2,6,21-TRIMETHYL-5,8,14,19,23-PENTAOXOOCTADECAHYDRO-1H,5H,14H,19H-PYRIDO[2,1-I]DIPYRROLO[2,1-C:2′,1′-L][1]OXA[4,7,10,13]TETRAAZACYCLOHEXADECIN-20-YL)-3-(M-TOLYL)PROPANAMIDE] ({X3-CO}-[Phe(3-Me)][aThr][Hyp][Pip]A[Pro(4R-Me)]; ester 2-C) | 4.86 ± 0.17 µM | 98.1 ± 8.1% |  |
| Cc1cccc(C[C@H](NC(=O)Nc2ccc(Cl)cc2F)C(=O)N[C@H]2COC(=O)[C@@H]3C[C@@H](C)CN3C(=O)[C@H](C)NC(=O)[C@@H]3CCCCN3C(=O)[C@@H]3CCCN3C2=O)c1 [Compound 8, (S)-2-(3-(4-CHLORO-2-FLUOROPHENYL)UREIDO)-N-((2R,6S,8AS,14AS,20S,23AS)-2,6-DIMETHYL-5,8,14,19,23-PENTAOXOOCTADECAHYDRO-1H,5H,14H,19H-PYRIDO[2,1-I]DIPYRROLO[2,1-C:2′,1′-L][1]OXA[4,7,10,13]TETRAAZACYCLOHEXADECIN-20-YL)-3-(M-TOLYL)PROPANAMIDE] | 3.51 ± 0.1 µM | 98.9 ± 0.4% |  |
